Assay [1] deals with MIA induced hyperalgesia in the rat. Kind of assay: MIA induced hyperalgesia in the rat (paw-pressure test). In kind it is in vivo. Particulars: for Mechanical threshold, before treatment, first day basal: baseline; for Effect of a single oral dose on mechanical threshold (in words): single oral dose after saline b.i.d. for 14 days (NT-11624 150 mg/kg, tramadol 40 mg/kg); for Antihyperalgesic activity after the last treatment (in words): treatment for 14 days b.i.d. p.o. (NT-11624 150 mg/kg, tramadol 40 mg/kg). The source says: Peripheral neuropathic induced in rats by administration into the left knee joint of MIA mimics chronic pain condition of osteoarthritis found in a large part of population over 60 years. The MIA test represents an useful and predictive model to study the anti-hyperalgesic potential of a drug in human osteoarthritic condition.
Drugs: The following substances were used: NT-11624 (batch n 66-MM3/16 supplied by Brane Discovery Sri, Gerenzano Italy) and tramadol (Tocris, UK). […] Control rats received saline only.
Sodium monoiodoacetate injection: A single intra-articular injection of sodium iodoacetate (MIA) was introduced into the right knee joint. […] Briefly, rats were deeply anaesthetized by ethylic ether. Following abolition of the hindpaw pinch withdrawal reflex, a 27-gauge needle was introduced into the joint cavity between the tibial plateau and femoral condyles. Once in place, 2 mg of MIA were solubilized in a volume of 25 ul and injected into the joint and the animal was allowed to recover for 14 days prior to pain assessment. It has consistently been shown that this dose of MIA causes osteoarthritic-like focal lesions in articular cartilage and subchondral bone thickening 14 days after administration Guingamp C. et al. Arthritis Rheum 40, 1670-9 (1997). Therefore this model can easily and quickly reproduce osteoarthritic-like lesions and functional impairment in rats, similar to that observed in human disease.
The administration of MIA induces in rats a hyperalgesic response to mechanical stimuli that reaches its statistical significance 5 days after administration and persists for 4 weeks (Fernihough et al. Pain 112:83-93 (2004)).
Control rats were treated with an equal volume of saline. […]
Starting from day 17 after MIA injection, paw pressure tests were performed.
Mechanical hyperalgesia: Paw mechanical sensitivity was determined using a Randall & Selitto apparatus exerting a force that increases at constant rate (32 g/s). The stimulus at which rats withdrawn the paw was evaluated before treatment (First day basal) and at the end of the treatment as following: before last treatment (pre-dose), and after last treatment (15, 30, 45, 60 min, 24, 48 and 72 h).
Results represent the mean of mechanical thresholds expressed as grams. To avoid any possible damage to the animal paw the maximum applied force was fixed at 240 g.

The test system of assay [2] is ddC induced mechanical allodynia in rats. Kind of assay: ddC induced mechanical allodynia in rats, von Frey test. The assay is classed as in vivo, rat. Particulars: for Reversal of ddC-induced neuropathy (mechanical threshold, von Frey): FIG. 4, 15 min after drug administration. The method, then: Painful peripheral NP may be induced in rats by i.v. administration of 2′,3′-dideoxycytidine (ddC) mimicking what is seen in AIDS patients undergoing antiviral therapy. The ddC test represents a useful and predictive model to study molecules with analgesic potential in human neuropathic states.
Adult male SD rats (Harlan, Italy, 150-200 g weight) were used. Animals were treated with 25 mg/kg i.v. bolus of 2′,3′-dideoxycytidine, an inhibitor of nucleoside reverse transcriptase used for AIDS therapy that in rodents induces a peripheral neuropathy resulting in allodynic responses to mechanical stimuli. Symptoms severity peaks between 5 to 10 days after administration (Joseph, E. K. et al. —Pain 107 (2004) 147-158). Ten days after administration of ddC, as an intravenous (i.v.) bolus, test substances were administered every day, once a day or b.i.d for 4 weeks. Dosing was withheld in those days in which allodynic tests were performed, and lasted for 24 h and 48 h.
NT-11624 was dissolved in distilled water and was orally by gavage administered as follows • Group 1: 100 mg/kg b.i.d. for 14 days, followed by 50 mg/kg b.i.d. for 7 days, then 50 mg/kg u.i.d. for 7 days. • Group 2: 50 mg/kg b.i.d. for 28 days.
Pregabalin (3B Pharmachem (Wuhan) International Co.) was dissolved in 1% CMC (carboxymethylcellulose) and orally administered at the dose of 15 mg/kg b.i.d. for 28 days.
Thresholds for mechanical allodynia were measured using an electronic Von Frey apparatus. […] After 4 week drug administration, additional tests were performed beyond the 60 min point, at 4, 8, 24, 48 and 56 h. Results represent the mean (±S.E.M.) of mechanical thresholds expressed in grams.
Drugs: The following substance was used: NT-11624 (batch No. 0000104580 supplied by Brane Discovery Srl, Gerenzano Italy). NT-11624 was dissolved in distilled water and given p.o. every day, except in those days in which allodynic tests were performed and lasted for 24 h, 48 h and 56 h (i.e. days 1, 3, 7, 10, 14, 21, 28).
The following groups of treatment were utilized: • NT-11624 (Group 1): rats received 100 mg/kg b.i.d. of NT-11624 for 14 days, then 50 mg/kg b.i.d. for 7 days, then 50 mg/kg u.i.d. for 7 days. • NT-11624 (Group 2): rats received 50 mg/kg b.i.d. for 28 days • Pregabalin: rats received 15 mg/kg b.i.d. for 28 days
Administration volume was 10 ml/kg body weight. Pregabalin [3B Pharmachem (Wuhan), International Co] was dissolved in CMC 1% (carboxymethylcellulose, Sigma-Aldrich, Italy), and orally given as described before. Control rats received vehicle only.
ddC intravenous injection: ddC was dissolved in saline to a concentration of 25 mg/kg (1 ml) and was administered i.v. into the rat tail vein. Control rats were treated with an equal volume of saline i.v.
The administration of ddC produces dose-dependent mechanical hypersensitivity and allodynia peaking in severity between 5-10 days after the administration. The test is usually performed at day 10.
Von Frey test: Each animal was placed in a chamber with a mesh metal floor covered by a plastic dome that enabled the animal to walk freely, but not to jump. The mechanical stimulus was then delivered in the mid-plantar skin of left hind paw using an electronic Von Frey apparatus (37400 Dynamic Plantar Aesthesiometer; Ugo Basile, Comerio, Varese, Italy). The cut-off was fixed at 50 g, while the increasing force rate (ramp duration) was settled at 20 sec. […] At day 28, additional tests were performed at 4, 8, 24, 48 and 56 h after drug administration. Results represent the mean (±S.E.M.) of mechanical thresholds expressed as grams.

[3] abbreviates: MIA rats, 14 days b.i.d. p.o. (NT-11624 150 mg/kg, tramadol 40 mg/kg).
Setting [4] is: MIA rats, groups later treated 14 days b.i.d. p.o. (NT-11624 150 mg/kg, tramadol 40 mg/kg).
Setting [5] is: MIA rats, single administration groups (saline 14 days b.i.d. first).
Where [6] appears, read: MIA rats, single administration on saline b.i.d., before the single p.o. dose (NT-11624 150 mg/kg, tramadol 40 mg/kg).
The mark [7] stands for this setting: MIA rats, single p.o. administration on saline b.i.d. (NT-11624 150 mg/kg, tramadol 40 mg/kg).
Where [8] appears, read: Group 1 down-titration schedule, p.o.
The mark [9] stands for this setting: Group 2: 50 mg/kg b.i.d. p.o. for 28 days, 50 mg/kg.
Setting [10] is: MIA rats, 14 days b.i.d. p.o., NT-11624 150 mg/kg.
Where [11] appears, read: 15 mg/kg b.i.d. p.o. for 28 days.

Entries after “also recorded” stand apart in the source; their conditions may differ.

For `COc1cccc(C2(O)CCCCC2CN(C)C)c1` (centres unmarked) [TRAMADOL, tramadol, reference compound], in assay [1] (setting [3]), the “Mechanical threshold, after last treatment 15 min” value is 38.8 ± 2.2 g; the “Mechanical threshold, after last treatment 30 min” value was 36.4 ± 2.9 g; the “Mechanical threshold, after last treatment 45 min” value came to 32.8 ± 3.4 g. For the same compound, the “Mechanical threshold, before treatment, first day basal” value (“Mechanical threshold, before treatment” for short) in assay [1] (setting [4]) was 59.2 ± 3.1 g. The “Mechanical threshold, before treatment” value in assay [1] (setting [5]) is given as 62.8 ± 3.0 g. For the same compound, the “Mechanical threshold, before last treatment, pre-dose” value (shortened to “Mechanical threshold … pre-dose”) in assay [1] (setting [6]) was found to be 25.5 ± 3.8 g. In addition, in assay [1] (setting [7]), the “Mechanical threshold, after last treatment 15 min” value came to 39.2 ± 4.1 g; the “Mechanical threshold, after last treatment 30 min” value is given as 43.4 ± 3.6 g; the “Mechanical threshold, after last treatment 45 min” value is given as 36.2 ± 3.4 g. Besides, the “Mechanical threshold, after last treatment 60 min” value in assay [1] (MIA rats, single p.o. administration on saline b.i.d., tramadol 40 mg/kg) is listed as 27.2 ± 3.4 g. Moreover, in assay [1], the “Effect of a single oral dose on mechanical threshold (in words)” value was “significant anti-hyperalgesic effect from 15 to 60 min”; the “Antihyperalgesic activity after the last treatment (in words)” value was “only a weak antihyperalgesic activity 15 and 30 min after the last treatment”.

On to `CC[C@@H](C(N)=O)N1CCCC1=O` [levetiracetam, reference compound], for which, in assay [2], the “Reversal of ddC-induced neuropathy (mechanical threshold, von Frey)” value is “not”.

For `O=C1CN2C(=O)CCC2N1` (centres unmarked) [NT-11624, 2,5-dioxohexahydro-1H-pyrrolo[1,2-a]imidazole], the “Reversal of ddC-induced neuropathy (mechanical threshold, von Frey)” value in assay [2] is on record as “fully reverts”. In addition, the “Onset of anti-allodynic effect” value in assay [2] (Group 1: 100 mg/kg b.i.d. 14 days, then 50 mg/kg b.i.d. 7 days, then 50 mg/kg u.i.d. 7 days, p.o.) was “starting from the third day; also recorded: as of day 3”. In addition, in assay [2] (setting [8]), the “Anti-allodynic effect 56 h from the last administration” value is listed as “still significant protection; also recorded: robust effect”, the “Anti-allodynic effect at day 14” value is given as “complete protection” and the “Anti-allodynic effect up to 48 h from the last administration (day 28)” value is reported as “full reversal of allodynia”. Besides, the “Effect up to 24 h after the last administration” value in assay [2] (Group 2: 50 mg/kg b.i.d. p.o. for 28 days) was “clearly evident”. For the same compound, in assay [2] (setting [9]), the “Effect 48 h after the last administration” value is recorded as “still significant; also recorded: still evident” and the “Onset of anti-pain response” value is recorded as “starting from day 10; also recorded: as of day 10”. The “Anti-hyperalgesic effect 15 min until 48 h after last dosing” value in assay [1] (150 mg/kg b.i.d. oral, 2 weeks) was “lasted throughout the experiment”. For the same compound, the “Paw pressure hyperalgesic response at the pre last administration test” value in assay [1] (75 and 150 mg/kg b.i.d. oral, 2 weeks, 13 h after the evening administration of the previous day) is “significant reduction of the hyperalgesia”. In assay [1] (setting [3]), the “Mechanical threshold, after last treatment 15 min” value is on record as 72.6 ± 4.1 g; the “Mechanical threshold, after last treatment 30 min” value is 75.0 ± 2.2 g; the “Mechanical threshold, after last treatment 45 min” value was 70.5 ± 2.7 g; the “Mechanical threshold … pre-dose” value turned out to be 65.1 ± 2.5 g. For the same compound, in assay [1] (setting [10]), the “Mechanical threshold, after last treatment 60 min” value was determined as 60.6 ± 4.2 g; the “Mechanical threshold, after last treatment 24 h” value stood at 55.3 ± 4.8 g; the “Mechanical threshold, after last treatment 48 h” value stood at 43.9 ± 4.0 g. The “Mechanical threshold, after last treatment 72 h” value in assay [1] (MIA rats, 14 days b.i.d. p.o., NT-11624 150 mg/kg, mean of 4 rats) was 34.8 ± 3.7 g. Also, the “Mechanical threshold, before treatment” value in assay [1] (setting [4]) is on record as 63.5 ± 3.2 g. For the same compound, the “Mechanical threshold, before treatment” value in assay [1] (setting [5]) is listed as 60.4 ± 2.7 g. Besides, in assay [1] (setting [6]), the “Mechanical threshold … pre-dose” value came out at 23.9 ± 3.5 g. Further, in assay [1] (setting [7]), the “Mechanical threshold, after last treatment 15 min” value was determined as 33.8 ± 3.1 g; the “Mechanical threshold, after last treatment 30 min” value is reported as 39.3 ± 2.8 g; the “Mechanical threshold, after last treatment 45 min” value is 26.2 ± 3.1 g. For the same compound, the “Antihyperalgesic activity at 48 h after the last treatment” value in assay [1] (NT-11624 150 mg/kg p.o., 14 days b.i.d.) was “statistically significant activity”. In addition, the “Duration of beneficial effect after last dosing” value in assay [1] (after a 2 week oral b.i.d. treatment) was “at least 48 h”. For the same compound, in assay [1], the “Effect of a single oral dose on mechanical threshold (in words)” value is “significant increase of mechanical threshold only at 30 min” and the “Antihyperalgesic activity after the last treatment (in words)” value was “completely protects from MIA-induced hyperalgesia up to 24 h”.

Turning to `CC(C)C[C@H](CN)CC(=O)O` [Pregabalin, reference compound], in assay [2] (15 mg p.o. b.i.d.), the “Onset of effect on allodynic threshold” value is given as “modest but significant effect already from day 1”. In assay [2] (setting [11]), the “Day of peak effect” value came out at 14 days and the “Effect of the last administration on day 28” value is given as “moderate beneficial effect that disappeared after 8 h”.

The values above are taken from patent US9125898B2, “Acetam derivatives for pain relief” (NEUROTUNE AG, priority 2008, dated 2015).
